Measurements: the supplement of paper PMC10307832

Experiments:
Assay in all cases: relative viability (nuclei count vs DMSO), 5 days (fraction); higher = more cells survive
LXF-289 = tested on: LXF-289
How it was run: (§1)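 One day after seeding in 1536-well plates, lung cancer cell lines were dosed by pin tool. Dosing was either single-drug or a fixed anchor-drug dose plus five library-drug doses (not always all listed) in √10 steps. After 5 days, nuclei were stained in one fix-and-stain step and counted on 4× images, and relative viability is the nuclei count of treated wells over that of vehicle wells, given as the median of duplicate plates.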

NCI-H661 = tested on: NCI-H661
How it was run: as §1

NCI-H441 = tested on: NCI-H441
How it was run: as §1

NCI-H1792 = tested on: NCI-H1792
How it was run: as §1

NCI-H727 = tested on: NCI-H727
How it was run: as §1

NCI-H520 = tested on: NCI-H520
How it was run: as §1

NCI-H1915 = tested on: NCI-H1915
How it was run: as §1

NCI-H2347 = tested on: NCI-H2347
How it was run: as §1

NCI-H322M = tested on: NCI-H322M
How it was run: as §1

RERF-LC-KJ = tested on: RERF-LC-KJ
How it was run: as §1

NCI-H1651 = tested on: NCI-H1651
How it was run: as §1

NCI-H1355 = tested on: NCI-H1355
How it was run: as §1

PC-14 = tested on: PC-14
How it was run: as §1

NCI-H1755 = tested on: NCI-H1755
How it was run: as §1

NCI-H460 = tested on: NCI-H460
How it was run: as §1

NCI-H596 = tested on: NCI-H596
How it was run: as §1

SK-MES-1 = tested on: SK-MES-1
How it was run: as §1

LCLC-103H = tested on: LCLC-103H
How it was run: as §1

NCI-H3122 = tested on: NCI-H3122
How it was run: as §1

NCI-H650 = tested on: NCI-H650
How it was run: as §1

NCI-H2170 = tested on: NCI-H2170
How it was run: as §1

SW 900 = tested on: SW 900
How it was run: as §1

With O=C(O)c1ccc(-c2c[nH]c3ncc(-c4ccccc4)cc23)cc1C1CCCC1 + CC(=O)Nc1cccc(-n2c(=O)n(C3CC3)c(=O)c3c(Nc4ccc(I)cc4F)n(C)c(=O)c(C)c32)c1 [Trametinib] (partner 0.02 µM) the relative viability (LXF-289; first compound 0.04 µM) was 0.625, the relative viability (LXF-289; first compound 0.1265 µM) was 0.685 and the relative viability (LXF-289; first compound 0.4 µM) was 0.666. The relative viability (LXF-289; first compound 1.265 µM) was 0.535, the relative viability (NCI-H661; first compound 0.04 µM) was 0.585 and the relative viability (NCI-H661; first compound 0.1265 µM) was 0.628. The relative viability (NCI-H661; first compound 0.4 µM) was 0.585, the relative viability (NCI-H661; first compound 1.265 µM) was 0.59 and the relative viability (NCI-H441; first compound 0.04 µM) was 0.48. It also gave a relative viability (NCI-H441; first compound 0.1265 µM) of 0.494, a relative viability (NCI-H441; first compound 0.4 µM) of 0.393 and a relative viability (NCI-H441; first compound 1.265 µM) of 0.464. It also gave a relative viability (NCI-H1792; first compound 0.04 µM) of 0.375, a relative viability (NCI-H1792; first compound 0.1265 µM) of 0.454 and a relative viability (NCI-H1792; first compound 0.4 µM) of 0.407. The relative viability (NCI-H1792; first compound 1.265 µM) was 0.392, the relative viability (NCI-H727; first compound 0.04 µM) was 0.428 and the relative viability (NCI-H727; first compound 0.1265 µM) was 0.428. For the same compound, the relative viability (NCI-H727; first compound 0.4 µM) was 0.379, the relative viability (NCI-H727; first compound 1.265 µM) was 0.428 and the relative viability (NCI-H520; first compound 0.04 µM) was 0.673. It also gave a relative viability (NCI-H520; first compound 0.1265 µM) of 0.775, a relative viability (NCI-H520; first compound 0.4 µM) of 0.672 and a relative viability (NCI-H520; first compound 1.265 µM) of 0.437. For the same compound, the relative viability (NCI-H1915; first compound 0.04 µM) was 0.293, the relative viability (NCI-H1915; first compound 0.1265 µM) was 0.313 and the relative viability (NCI-H1915; first compound 0.4 µM) was 0.287. For the same compound, the relative viability (NCI-H1915; first compound 1.265 µM) was 0.289, the relative viability (NCI-H2347; first compound 0.04 µM) was 0.267 and the relative viability (NCI-H2347; first compound 0.1265 µM) was 0.286. It also gave a relative viability (NCI-H2347; first compound 0.4 µM) of 0.311, a relative viability (NCI-H2347; first compound 1.265 µM) of 0.26 and a relative viability (NCI-H322M; first compound 0.04 µM) of 0.482. The relative viability (NCI-H322M; first compound 0.1265 µM) was 0.633, the relative viability (NCI-H322M; first compound 0.4 µM) was 0.524 and the relative viability (NCI-H322M; first compound 1.265 µM) was 0.493. It also gave a relative viability (RERF-LC-KJ; first compound 0.04 µM) of 0.916, a relative viability (RERF-LC-KJ; first compound 0.1265 µM) of 0.908 and a relative viability (RERF-LC-KJ; first compound 0.4 µM) of 0.814. The relative viability (RERF-LC-KJ; first compound 1.265 µM) was 0.657, the relative viability (NCI-H1651; first compound 0.04 µM) was 0.822 and the relative viability (NCI-H1651; first compound 0.1265 µM) was 0.853. For the same compound, the relative viability (NCI-H1651; first compound 0.4 µM) was 0.829, the relative viability (NCI-H1651; first compound 1.265 µM) was 0.714 and the relative viability (NCI-H1355; first compound 0.04 µM) was 0.42. It also gave a relative viability (NCI-H1355; first compound 0.1265 µM) of 0.412, a relative viability (NCI-H1355; first compound 0.4 µM) of 0.459 and a relative viability (NCI-H1355; first compound 1.265 µM) of 0.391. The relative viability (PC-14; first compound 0.04 µM) was 0.714, the relative viability (PC-14; first compound 0.1265 µM) was 0.75 and the relative viability (PC-14; first compound 0.4 µM) was 0.703. It also gave a relative viability (PC-14; first compound 1.265 µM) of 0.688, a relative viability (NCI-H1755; first compound 0.04 µM) of 0.778 and a relative viability (NCI-H1755; first compound 0.1265 µM) of 0.777. It also gave a relative viability (NCI-H1755; first compound 0.4 µM) of 0.799, a relative viability (NCI-H1755; first compound 1.265 µM) of 0.754 and a relative viability (NCI-H460; first compound 0.04 µM) of 0.13. The relative viability (NCI-H460; first compound 0.1265 µM) was 0.189, the relative viability (NCI-H460; first compound 0.4 µM) was 0.238 and the relative viability (NCI-H460; first compound 1.265 µM) was 0.23. The relative viability (NCI-H596; first compound 0.04 µM) was 0.726, the relative viability (NCI-H596; first compound 0.1265 µM) was 0.815 and the relative viability (NCI-H596; first compound 0.4 µM) was 0.777. The relative viability (NCI-H596; first compound 1.265 µM) was 0.802, the relative viability (SK-MES-1; first compound 0.04 µM) was 0.57 and the relative viability (SK-MES-1; first compound 0.1265 µM) was 0.538. For the same compound, the relative viability (SK-MES-1; first compound 0.4 µM) was 0.521, the relative viability (SK-MES-1; first compound 1.265 µM) was 0.524 and the relative viability (LCLC-103H; first compound 0.04 µM) was 0.65. The relative viability (LCLC-103H; first compound 0.1265 µM) was 0.697, the relative viability (LCLC-103H; first compound 0.4 µM) was 0.68 and the relative viability (LCLC-103H; first compound 1.265 µM) was 0.644. It also gave a relative viability (NCI-H3122; first compound 0.04 µM) of 0.196, a relative viability (NCI-H3122; first compound 0.1265 µM) of 0.24 and a relative viability (NCI-H3122; first compound 0.4 µM) of 0.253. For the same compound, the relative viability (NCI-H3122; first compound 1.265 µM) was 0.277, the relative viability (NCI-H650; first compound 0.04 µM) was 0.935 and the relative viability (NCI-H650; first compound 0.1265 µM) was 0.943. The relative viability (NCI-H650; first compound 0.4 µM) was 0.879, the relative viability (NCI-H650; first compound 1.265 µM) was 0.579 and the relative viability (NCI-H2170; first compound 0.04 µM) was 0.899. For the same compound, the relative viability (NCI-H2170; first compound 0.1265 µM) was 0.925, the relative viability (NCI-H2170; first compound 0.4 µM) was 0.887 and the relative viability (NCI-H2170; first compound 1.265 µM) was 0.79. For the same compound, the relative viability (SW 900; first compound 0.04 µM) was 0.757, the relative viability (SW 900; first compound 0.1265 µM) was 0.711 and the relative viability (SW 900; first compound 0.4 µM) was 1.37. The relative viability (SW 900; first compound 1.265 µM) was 0.454.
